Marks after values point to notes of the source that are not given here.
Assays:
[1] = system: serum total bile acid (SBA); assay: Duration of action of LUM001 on dog SBA, Method 1 (two meals); type: in vivo, beagle dogs; details: 0.2 mg/kg p.o. at 1 hr; full meal 0 hr, half meal 4 hr; 4.5 hr
Method: Male beagle dogs were obtained from Covance Research Products, Cumberland Va. or Marshall Farms USA, Inc., North Rose N.Y. A total of 20 dogs, 1 to 5 years old, 6.8 to 15.6 kg body weight, were used in these experiments. The dogs were conditioned to a 12 hour light/dark cycle and maintained on a feeding restriction of 1 hour per day access to food (Richman Standard Certified Canine Diet #5007, PMI Nutrition, Inc., St. Louis Mo.) from 7 to 8 AM. They were trained to eat a special meal promptly within 20 minutes when presented (1 can. 397 g, Evanger's 100% Beef for Dogs, Evanger's Dog and Cat Food Co., Inc., Wheeling Ill., mixed with 50 g of sharp cheddar cheese.).
SBA was measured by an enzymatic assay. SBA values are expressed as μg of total bile acids/ml of serum.
In dogs a single experimental meal produces a postprandial rise in SBA that is elevated to a peak at 1 hour after feeding and constant for an additional 3 hours. Previous experiments (2) indicate that LUM001 remains active for more than 4.5 hours. To measure the duration of action of an ASBT inhibitor using postprandial SBA levels requires that in the control situation the SBA levels remain elevated and constant for the entire period of compound action, or that the compound be administered long before the postprandial rise occurs, and remain active in the empty digestive system for long periods before feeding. […]

[2] = Single-dose [14C]LUM001 oral solution: radioactivity in plasma, blood, urine, feces; type: in vivo, human
Method: This was an open-label, one-period, single-dose study of a [^14C]LUM001 oral solution. Eight healthy male subjects received an oral solution of 5 mg [^14C]LUM001 (containing approximately […] per dose). Blood samples were collected at predose and for 72 hours postdose, urine samples were collected predose and for 168 hours postdose and feces were collected predose and for 216 hours postdose. Plasma, whole blood, urine and fecal samples were analyzed for total radioactivity, and selected fecal samples were analyzed for LUM001 and relevant metabolite concentrations. In addition, metabolic profiles in selected fecal samples were obtained using high performance liquid radio chromatography (HPLRC).

Hemoglobin A1c (HbA1c) = assay: Baseline-corrected percent HbA1c in ZDF rats; type: in vivo; details: twice daily oral gavage
plasma amylase = assay: Plasma amylase in ZDF rats, week 3; type: in vivo; details: twice daily oral gavage
[3] = system: Alkaline Phosphatase (ALP); details: twice daily oral gavage; Week 3
Method: This study was conducted to determine the effects of two non-absorbed ASBTi compounds in the ZDF rat model after 3 weeks of treatment.
Animals were acclimatized for 5-7 days after arrival. […] The 2nd set of study was initiated after completion of the 1st. Test compound formulation prepared every other day and stored at 4° C. […] After 3rd week of treatment blood samples were collected by cardiac puncture from fasted animals for blood chemistry analysis: ALAT, ASAT, GGT, Alkaline Phosphatase and total Bile Acids. Tests were performed in contract clinical laboratory (Liver Profile SA320, Antech Diagnostics, Orange Country, Calif.).
Blood was collected by tail vein bleed weekly and after 3 weeks of treatment by cardiopuncture for serum tests. Data for each group is presented as the Mean Value±SEM. Statistically evaluation by t-test: *P<0.05, **P<0.01,***P<0.001 vs. vehicle group.

[4] = system: Aspartate Aminotransferase (ASAT); assay: Plasma aspartate aminotransferase in ZDF rats, week 3; type: in vivo; details: twice daily oral gavage
plasma lipase = assay: Plasma lipase in ZDF rats, week 3; type: in vivo; details: twice daily oral gavage
[5] = system: fecal excretion of [14C]taurocholic acid (TCA); assay: Fecal excretion of [14C]taurocholic acid in hamsters, LUM002; type: in vivo, Syrian hamster; details: oral gavage in two half doses, feces collected 24 hours, n=4 nonfasted hamsters per group
Method: To study the effect of LUM002 on fecal excretion of [^14C]taurocholic acid (TCA) in the Syrian hamster in vivo, [^14C]TCA was administered intraperitoneally 1 hour before dosing the test compound. Each animal was dosed with 1 μCi [^14C]TCA. LUM002 was dosed by oral gavage (5 mL/kg per administration) in either 5% (v/v) Solutol with 0.5% hydroxyethylcellulose (HEC) or 0.5% HEC alone. The first half of dose of test compound/vehicle was given 1 hour after [^14Cl]TCA injection, followed by the second half of dose 7 hours after the first dose of test compound/vehicle. Feces were collected for 24 hours after [^14Cl]TCA administration and aliquots from feces were combusted for determination of [^14Cl] excretion.
The ED200 (dose which doubles the fecal excretion of [^14Cl] label vs. control from dose response curve, including 95% Confidence interval) was calculated from a dose response curve.

total serum bile acids = assay: Plasma total serum bile acids in ZDF rats, week 3; type: in vivo; details: twice daily oral gavage
[6] = 5 mg [14C]LUM001 oral solution, eight healthy male subjects
[7] = 5 mg [14C]LUM001 oral solution, analyte in feces

CCCCC1(CCCC)CS(=O)(=O)c2ccc(N(C)C)cc2[C@@H](c2ccc(OCc3ccc(C[N+]45CCN(CC4)CC5)cc3)cc2)[C@H]1O [LUM001]
Serum Bile Acid, mean [1]: 2.5* μg/ml
Fecal radioactivity associated with unchanged free LUM001 ([2]; 5 mg [14C]LUM001 oral solution): 94%
Radioactive dose detected in plasma, whole blood or urine [2, 6]: Less than 1%
Total radioactive dose detected in feces [2, 6]: 72%
Mean Percent of Dose in Feces [2, 7]: 65.0%
Percent of Fecal Radioactivity [2, 7]: 94.4%
Cumulative % of Total Dose ([2]; Feces incl. Toilet Paper (cumulative recovery in toilet paper from first five fecal samples)): 72.466%
Cumulative % of Total Dose ([2]; Feces, 0-24 hr): 30.376%
Cumulative % of Total Dose ([2]; Feces, 24-48 hr): 49.878%
Cumulative % of Total Dose ([2]; Feces, 48-72 hr): 67.630%
Cumulative % of Total Dose ([2]; Feces, 72-96 hr): 69.653%
Cumulative % of Total Dose ([2]; Feces, 96-120 hr): 71.606%
Cumulative % of Total Dose ([2]; Feces, 120-144 hr): 71.771%
Cumulative % of Total Dose ([2]; Feces, 144-168 hr): 71.815%
Cumulative % of Total Dose ([2]; Feces, 168-192 hr): 71.885%
Cumulative % of Total Dose ([2]; Feces, 192-216 hr): 71.885%
Radioactive Concentration ([2]; Plasma, 0.5 hr): BLQ
Radioactive Concentration ([2]; Plasma, 1 hr): BLQ
Radioactive Concentration ([2]; Plasma, 1.5 hr): BLQ
Radioactive Concentration ([2]; Plasma, 2 hr): BLQ
Radioactive Concentration ([2]; Plasma, 2.5 hr): BLQ
Radioactive Concentration ([2]; Plasma, 3 hr): BLQ
Radioactive Concentration ([2]; Plasma, 4 hr): BLQ
Radioactive Concentration ([2]; Plasma, 6 hr): BLQ
Radioactive Concentration ([2]; Plasma, 8 hr): BLQ
Radioactive Concentration ([2]; Plasma, 12 hr): BLQ
Radioactive Concentration ([2]; Plasma, 16 hr): 0.000 ng equivalents/mL
Radioactive Concentration ([2]; Plasma, 24 hr): BLQ
Radioactive Concentration ([2]; Plasma, 36 hr): 0.000 ng equivalents/mL
Radioactive Concentration ([2]; Plasma, 48 hr): BLQ
Radioactive Concentration ([2]; Plasma, 60 hr): BLQ
Radioactive Concentration ([2]; Plasma, 72 hr): BLQ
Cumulative % of Total Dose ([2]; Total (Urine and Feces)): 72.532%
Cumulative % of Total Dose ([2]; Urine, 0-2 hr): 0.005%
Cumulative % of Total Dose ([2]; Urine, 2-4 hr): 0.012%
Cumulative % of Total Dose ([2]; Urine, 4-8 hr): 0.028%
Cumulative % of Total Dose ([2]; Urine, 8-12 hr): 0.041%
Cumulative % of Total Dose ([2]; Urine, 12-24 hr): 0.058%
Cumulative % of Total Dose ([2]; Urine, 24-48 hr): 0.057%
Cumulative % of Total Dose ([2]; Urine, 48-72 hr): 0.062%
Cumulative % of Total Dose ([2]; Urine, 72-96 hr): 0.063%
Cumulative % of Total Dose ([2]; Urine, 96-120 hr): 0.063%
Cumulative % of Total Dose ([2]; Urine, 120-144 hr): 0.064%
Cumulative % of Total Dose ([2]; Urine, 144-168 hr): 0.066%
Radioactive Concentration ([2]; Whole Blood, 1 hr): 0.000 ng equivalents/g
Radioactive Concentration ([2]; Whole Blood, 4 hr): 0.000 ng equivalents/g
Radioactive Concentration ([2]; Whole Blood, −0.5 hr): 0.000 ng equivalents/g

CCCC[C@]1(CC)CS(=O)(=O)c2ccc(N(C)C)cc2[C@@H](c2cccc(NC(=O)N[C@@H]3O[C@H](COS(=O)(=O)[O-])[C@@H](O)[C@H](OCc4ccccc4)[C@H]3O)c2)[C@H]1O.CCO.O.[K+] [LUM002, potassium((2R,3R,4S,5R,6R)-4-benzyloxy-6-{3-[3-((3S,4R,5R)-3-butyl-7-dimethylamino-3-ethyl-4-hydroxy-1,1-dioxo-2,3,4,5-tetrahydro-1H-benzo[b]thiepin-5-yl)-phenyl]-ureido}-3,5-dihydroxy-tetrahydro-pyran-2-ylmethyl)sulphate ethanolate, hydrate]
Baseline-corrected percent HbA1c (Hemoglobin A1c (HbA1c)): significant dose-dependent reductions
Plasma amylase (plasma amylase): Neither LUM002 nor SC-435 caused a statistically significant changes
Plasma alkaline phosphatase (ALP) [3]: significant reductions in ALP
Plasma aspartate aminotransferase (ASAT) [4]: statistically significant reduction in ASAT
Plasma lipase (plasma lipase): statistically significant reductions in plasma lipase at higher doses
Fecal excretion of bile acids ([14C]TCA label) [5]: significantly increased fecal excretion of bile acids
Plasma total serum bile acids (SBA) (total serum bile acids): statistically significant reductions in SBA

— patent publication US20140271734A1, “BILE ACID RECYCLING INHIBITORS FOR TREATMENT OF BARRETT'S ESOPHAGUS AND GASTROESOPHAGEAL REFLUX DISEASE” (LUMENA PHARMACEUTICALS, INC., priority 2013, published 2014)
